Test results as given in publication PMC3072440 (Chemical research in toxicology, 2010).
Like-named read-outs stand apart in the source and are kept apart here.

Columns and labels:
human P450 1B1 = biological target: T1, human P450 1B1 (Homo sapiens, UniProt Q16678); assay: Inhibition of P450 1B1-dependent EROD activity; assay type: biochemical; details: read-out: inhibition of substrate oxidation by P450s (IC50), P450 1B1; 7-ethoxyresorufin O-deethylation, 2.5 µM substrate, bacterial membranes; means ± SD
T1 sequence (Q16678 1-543): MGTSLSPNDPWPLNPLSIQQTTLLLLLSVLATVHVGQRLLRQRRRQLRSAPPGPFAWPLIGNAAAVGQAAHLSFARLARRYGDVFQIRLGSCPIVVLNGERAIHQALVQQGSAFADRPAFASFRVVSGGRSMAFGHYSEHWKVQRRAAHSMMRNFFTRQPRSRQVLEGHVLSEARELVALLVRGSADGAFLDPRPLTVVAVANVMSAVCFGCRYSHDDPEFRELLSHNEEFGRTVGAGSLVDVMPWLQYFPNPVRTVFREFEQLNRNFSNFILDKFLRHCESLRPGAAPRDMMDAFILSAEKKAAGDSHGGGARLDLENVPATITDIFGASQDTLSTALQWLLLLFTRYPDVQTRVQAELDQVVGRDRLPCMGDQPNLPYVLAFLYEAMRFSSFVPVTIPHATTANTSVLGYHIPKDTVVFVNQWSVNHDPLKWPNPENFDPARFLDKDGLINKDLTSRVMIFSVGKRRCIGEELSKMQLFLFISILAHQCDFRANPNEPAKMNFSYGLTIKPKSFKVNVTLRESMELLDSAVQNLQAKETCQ

human P450 1A1 = biological target: T2, human P450 1A1 (Homo sapiens, UniProt P04798); assay: Inhibition of P450 1A1-dependent EROD activity; assay type: biochemical
T2 sequence (P04798 1-512): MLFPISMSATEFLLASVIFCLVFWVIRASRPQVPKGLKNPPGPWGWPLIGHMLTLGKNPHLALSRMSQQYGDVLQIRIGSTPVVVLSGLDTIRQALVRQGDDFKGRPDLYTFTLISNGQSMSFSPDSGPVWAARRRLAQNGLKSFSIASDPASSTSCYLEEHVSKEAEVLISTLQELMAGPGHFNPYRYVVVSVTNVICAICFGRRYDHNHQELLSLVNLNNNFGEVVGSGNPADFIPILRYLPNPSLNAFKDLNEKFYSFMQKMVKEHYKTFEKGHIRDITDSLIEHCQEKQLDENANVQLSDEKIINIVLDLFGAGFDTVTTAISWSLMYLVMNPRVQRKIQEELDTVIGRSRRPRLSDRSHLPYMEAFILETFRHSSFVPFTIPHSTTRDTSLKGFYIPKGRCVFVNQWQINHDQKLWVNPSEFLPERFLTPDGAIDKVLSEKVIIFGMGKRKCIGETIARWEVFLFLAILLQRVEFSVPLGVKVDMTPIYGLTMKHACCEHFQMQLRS

human P450 1A2 = biological target: T3, human P450 1A2 (Homo sapiens, UniProt P05177)
T3 sequence (P05177 1-516): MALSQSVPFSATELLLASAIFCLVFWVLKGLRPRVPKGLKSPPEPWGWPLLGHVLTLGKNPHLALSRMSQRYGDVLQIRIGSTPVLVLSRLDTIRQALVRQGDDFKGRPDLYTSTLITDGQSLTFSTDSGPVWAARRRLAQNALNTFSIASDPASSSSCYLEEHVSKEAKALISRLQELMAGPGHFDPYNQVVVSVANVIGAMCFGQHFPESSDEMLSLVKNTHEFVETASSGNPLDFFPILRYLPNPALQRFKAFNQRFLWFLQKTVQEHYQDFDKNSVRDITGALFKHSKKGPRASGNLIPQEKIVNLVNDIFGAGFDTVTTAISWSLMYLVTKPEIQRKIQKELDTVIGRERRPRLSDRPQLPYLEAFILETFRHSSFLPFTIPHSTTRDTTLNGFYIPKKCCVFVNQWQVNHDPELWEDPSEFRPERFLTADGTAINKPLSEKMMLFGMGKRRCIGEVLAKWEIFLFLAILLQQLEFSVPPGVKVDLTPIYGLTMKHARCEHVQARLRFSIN

human P450 2C9 [1] = biological target: T4, human P450 2C9 (Homo sapiens, UniProt P11712)
human P450 3A4 [2] = biological target: T5, human P450 3A4 (Homo sapiens, UniProt P08684); assay: Inhibition of P450 3A4-dependent midazolam 4-hydroxylation
human P450 3A4 [3] = biological target: T5, human P450 3A4; assay: Spectral binding titration with purified P450 3A4; details: decreases in α and β bands monitored; up to 100 µM
CYP3A4 (P450 3A4) = CYP3A4 (P450 3A4) (Homo sapiens, UniProt P08684); assay: Inhibition of P450 3A4-dependent midazolam 4-hydroxylation; details: human, pH 7.4, probe midazolam (0.1 mM), 4-hydroxylation
human P450 2C9 [4] = biological target: T4, human P450 2C9; assay: Inhibition of P450 2C9-dependent flurbiprofen 4’-hydroxylation
human P450 3A4 [5] = biological target: T5, human P450 3A4
human P450 3A4 [6] = biological target: T5, human P450 3A4; remark: listed apart in the source
human P450 3A4 [7] = biological target: T5, human P450 3A4; assay: Effect on P450 3A4-catalyzed midazolam 1’-hydroxylation

T5 sequence (P08684 whole entry): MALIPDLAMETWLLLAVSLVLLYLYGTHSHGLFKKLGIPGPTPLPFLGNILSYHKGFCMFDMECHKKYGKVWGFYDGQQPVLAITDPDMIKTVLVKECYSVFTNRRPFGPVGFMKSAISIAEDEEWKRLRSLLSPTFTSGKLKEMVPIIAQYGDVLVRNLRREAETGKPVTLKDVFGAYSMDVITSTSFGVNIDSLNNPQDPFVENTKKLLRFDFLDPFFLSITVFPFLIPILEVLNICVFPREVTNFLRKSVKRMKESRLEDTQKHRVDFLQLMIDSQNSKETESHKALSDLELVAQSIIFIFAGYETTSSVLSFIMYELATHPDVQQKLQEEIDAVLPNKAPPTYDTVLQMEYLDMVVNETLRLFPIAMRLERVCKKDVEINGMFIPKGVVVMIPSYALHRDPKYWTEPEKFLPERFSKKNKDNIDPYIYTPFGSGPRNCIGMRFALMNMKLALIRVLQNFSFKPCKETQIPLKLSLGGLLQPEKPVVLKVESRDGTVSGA
T4 sequence (P11712 whole entry): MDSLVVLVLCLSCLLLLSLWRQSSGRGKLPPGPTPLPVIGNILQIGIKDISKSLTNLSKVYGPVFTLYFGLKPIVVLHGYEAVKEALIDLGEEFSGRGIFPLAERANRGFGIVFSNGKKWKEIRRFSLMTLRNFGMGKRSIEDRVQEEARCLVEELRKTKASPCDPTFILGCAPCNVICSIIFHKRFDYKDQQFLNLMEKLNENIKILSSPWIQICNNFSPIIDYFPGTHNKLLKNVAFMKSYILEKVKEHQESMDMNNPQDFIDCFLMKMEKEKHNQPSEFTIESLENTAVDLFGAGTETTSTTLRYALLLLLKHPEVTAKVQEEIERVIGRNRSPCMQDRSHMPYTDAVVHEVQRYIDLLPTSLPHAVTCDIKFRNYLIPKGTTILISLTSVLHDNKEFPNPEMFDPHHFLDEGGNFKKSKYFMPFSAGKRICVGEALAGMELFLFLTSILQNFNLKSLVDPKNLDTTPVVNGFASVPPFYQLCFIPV
CYP3A4 (P450 3A4), sequence (P08684 whole entry): as the sequence (P08684 whole entry) above

Structure (SMILES): COc1ccc(-c2cc(=O)c3c(O)cc(O)cc3o2)cc1OC [3’4’DM57DHF, 3’4’-dimethoxy-5,7-dihydroxyflavone]
- IC50 (human P450 1B1): 0.019 ± 0.003 µM
- IC50 (human P450 1A1): 0.072 ± 0.011 µM
- IC50 (human P450 1A2): 0.011 ± 0.003 µM
- IC50 (human P450 2C9 [1]): 0.88 ± 0.21 µM
- inhibition of P450 2C9 flurbiprofen 4’-hydroxylation, in words (human P450 2C9 [1]): strong inhibitors
- IC50 of P450 3A4 fold higher than that for P450 1B1 (human P450 3A4 [2]; ratio IC50 3A4 / IC50 1B1): 2000 fold
- IC50 of P450 3A4 fold higher than that of P450 2C9 (human P450 3A4 [2]; ratio IC50 3A4 / IC50 2C9): 43 fold

Structure (SMILES): COc1cccc(-c2cc(=O)c3c(O)cc(O)cc3o2)c1 [3’M57DHF, 3’-methoxy-5,7-dihydroxyflavone]
- IC50 (human P450 1A1): 5.8 µM
- spectral change / Type I binding spectra with P450 3A4, in words (human P450 3A4 [3]): induced spectral changes
- IC50 (CYP3A4 (P450 3A4)): 16 µM
- inhibition of P450 2C9 flurbiprofen 4’-hydroxylation, in words (human P450 2C9 [4]): strong inhibitors

Structure (SMILES): O=c1cc(-c2ccc(O)cc2)oc2cc(O)cc(O)c12 [4’57THF, 4’5,7-trihydroxyflavone]
- inhibition of P450 3A4 midazolam 4-hydroxylation, in words (human P450 3A4 [5]): significantly inhibited
- effect on formation of 1’-hydroxymidazolam by P450 3A4, in words (human P450 3A4 [6]): slightly activated

Structure (SMILES): O=c1cc(-c2ccccc2)oc2cc(O)cc(O)c12 [57DHF, 5,7-dihydroxyflavone]
- inhibition of P450 2C9 flurbiprofen 4’-hydroxylation, in words (human P450 2C9 [1]): strong inhibitors
- IC50 (human P450 2C9 [4]): 0.8 ± 0.14 µM

Structure (SMILES): O=C1CC(c2ccccc2)Oc2ccccc21 (centres unmarked) [flavanone]
- inhibition of P450 3A4 midazolam 4-hydroxylation, in words (human P450 3A4 [5]): inhibited the formation of 4-hydroxymidazolam
- effect on formation of 1’-hydroxymidazolam by P450 3A4, in words (human P450 3A4 [7]): enhanced the formation of 1’-hydroxymidazolam
